Laboratory results: patent publication US6492344B1, “Syndecan enhancer element and syndecan stimulation of cellular differentiation” (Biotie Therapies Corp., priority 1993, dated 2002)

Test system: 3T3NIH cells
Experiment: 125-IdU incorporation (DNA synthesis) assay in 3T3NIH cells
Type: cell-based, mouse
Conditions: pFiRE transfected 3T3NIH cells; 10 ng/ml growth factor (2 ng/ml TGF-β) or 5% FCS
From the text: Effect of Various Growth Factors on Enhancer Activation in NIH3T3 Cells. Plasmid pFiRE was transfected into 3T3NIH cells as described, supra. The cells were starved in DMEM medium supplemented with 5% fetal calf serum to about 70% confluence. Fetal calf serum was then replaced with 2% carboxy-methyl-Sephadex eluted fetal calf serum (CMS) 12 hrs before adding the growth factors. Various growth factors in the same medium, 5% fetal calf serum (FCS) supplemented medium or a control containing the medium, without any added growth factors were incubated with the transfected cells for 2 days, and CAT activity was measured. The effect of 10 ng/ml of FGF-2, FGF-1, FGF-4, FGF-7 (KGF), EGF, IGF1, TGFα, IFNγ, and PDGF and 2 ng/ml TGF-β were tested. The human recombinant growth factors were purchased from Peprotech (FGF-1, -2, and -7), Boehringer (FGF-2) or from Calbiochem (PDGF) TGF-β was purchased from Sigma. The effect of the added growth factors and FCS on DNA synthesis was also tested by a 125-IdU incorporation assay. This cell proliferation assay was carried out by incubating cells for 4-6 hrs with 0.25 μCi/ml 5-[^125I]iodo-2′-deoxyuridine (IdU, Amersham), washed several times with PBS and solubilized in 1 M NaOH. Radioactivity was measured using a gamma counter (Wallac).

“FGF-2: Basic fibroblast growth factor (FGF-2 or bFGF); recombinant human” was tested, and the “DNA synthesis / cell proliferation (125-IdU incorporation)” value was “significant increase in DNA synthesis”.
